# Source: patent publication US20190389865A1, “SUBSTITUTED PYRROLO[1,2-a]TRIAZINES AND RELATED COMPOUNDS AND THEIR USE IN THE TREATMENT OF MEDICAL DISORDERS” (Lysosomal Therapeutics Inc., priority 2016, published 2019)
# Key:
# [1] = target: T1, glucocerebrosidase (Gcase) (Homo sapiens, UniProt P04062); assay: Glucocerebrosidase (Gcase) activation assay, 4-methylumbelliferyl-beta-D-glucopyranoside substrate, fluorescence; format: biochemical; conditions: 10 nM GCase, 100 nM saposin C, pH 4.7; for activation at 0.1 µM: 0.1 μM test compound, read-out: Percent Gcase Activation, 0.1 μM Test Compound; for activation at 1 µM: 1 μM test compound, read-out: Percent Gcase Activation, 1 μM Test Compound
# T1 sequence (P04062 40-536): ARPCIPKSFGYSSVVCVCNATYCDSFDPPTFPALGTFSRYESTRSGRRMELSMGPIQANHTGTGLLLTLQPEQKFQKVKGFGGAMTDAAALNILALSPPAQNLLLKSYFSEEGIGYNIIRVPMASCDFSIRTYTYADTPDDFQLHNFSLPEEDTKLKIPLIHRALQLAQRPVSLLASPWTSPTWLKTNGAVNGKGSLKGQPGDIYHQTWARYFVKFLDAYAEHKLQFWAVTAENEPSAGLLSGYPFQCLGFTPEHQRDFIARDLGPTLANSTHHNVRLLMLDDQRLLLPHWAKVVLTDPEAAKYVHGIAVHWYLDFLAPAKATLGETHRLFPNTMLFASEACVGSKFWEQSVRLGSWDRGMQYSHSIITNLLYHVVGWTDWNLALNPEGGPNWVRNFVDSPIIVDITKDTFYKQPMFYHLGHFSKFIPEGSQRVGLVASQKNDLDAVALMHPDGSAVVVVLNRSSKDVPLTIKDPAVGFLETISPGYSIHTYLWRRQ
# Procedure: The ability of exemplary compounds to activate glucocerebrosidase (Gcase) was measured.
# A 484 μL aliquot of a 1.0 mg/mL solution of phosphatidylserine (PS) (Sigma P7769) in chloroform was evaporated under a stream of nitrogen for 1 hour. The lipid film was dissolved over 4 minutes of vigorous vortexing in 40 mL of 176 mM K2HPO4/50 mM citric acid (pH 4.7) containing 7.5 μL of triton X-100, resulting in a mixed micellar preparation with a composition of 0.32 mM triton and 0.37 mol % PS. 4-Methylumbelliferyl-beta-D-glucopyranoside (ACROS-337025000) was dissolved in the micellar solution to a final concentration of 2 mM for use as the reaction substrate.
# Test compounds were diluted to the desired concentrations with dimethylsulfoxide (DMSO) from 10 mM stocks, and 0.41 μL of the DMSO compound mixture was added to 100 μL of micellar solution containing 10 nM GCase and 100 nM saposin C (Enzo ALX-201-262-C050). Pre-incubation was allowed to occur for 30 minutes at room temperature, after which the reaction was initiated by combining 25 μL of substrate solution with 25 μL of compound/GCase/saposin mixture. The reaction proceeded for 15 minutes at room temperature and was stopped by adding 150 μL of 1M glycine, pH 12.5. The endpoint of the reaction was monitored by measuring fluorescence intensity (excitation: 365 nm; emission: 440 nm) on a SpectraMax i3 instrument (Molecular Devices). […]
# [2] = Compound solubility in water; format: physicochemical
Structure (SMILES),activation at 0.1 µM [1] [%],activation at 1 µM [1] [%],solubility [2] [µg/mL]
"C#Cc1ccc(NC(=O)c2ccn3c(C)nc(C)nc23)cc1 [N-(4-Ethynylphenyl)-2,4-dimethylpyrrolo[1,2-a][1,3,5]triazine-8-carboxamide]",< 5,> 20,1.8
"Cc1nc(C)n2ccc(C(=O)Nc3ccc4c(c3)CCC4)c2n1 [N-(2,3-Dihydro-1H-inden-5-yl)-2,4-dimethylpyrrolo[1,2-a][1,3,5]triazine-8-carboxamide]",< 5,> 20,1.2
"CCC(NC(=O)c1cccc2c(C)nc(C)nc12)c1ccccc1 (stereo not drawn) [2,4-Dimethyl-N-(1-phenylpropyl)quinazoline-8-carboxamide]",< 5,5 to 20,8.7
"Cc1nc(C)c2cccc(C(=O)Nc3ccc4c(c3)CCC4)c2n1 [N-(2,3-Dihydro-1H-inden-5-yl)-2,4-dimethylquinazoline-8-carboxamide]",< 5,5 to 20,0.5
"C#Cc1ccc(NC(=O)c2cccc3c(C)nc(C)nc23)cc1 [N-(4-Ethynylphenyl)-2,4-dimethylquinazoline-8-carboxamide]",< 5,< 5,0.7
"CCC(NC(=O)c1ccn2c(C)nc(C)nc12)c1ccccc1 (stereo not drawn) [2,4-Dimethyl-N-(1-phenylpropyl)pyrrolo[1,2-a][1,3,5]triazine-8-carboxamide]",5 to 20,> 20,17.4
"CCCCCO[C@H]1CC[C@H](NC(=O)c2cccc3c(C)nc(C)nc23)CC1 [2,4-Dimethyl-N-((1R,4R)-4-(pentyloxy)cyclohexyl)quinazoline-8-carboxamide]",< 5,5 to 20,7.6
"Cc1nc(C)n2ccc(C(=O)NC(C3CC3)C(F)(F)F)c2n1 (stereo not drawn) [N-(1-Cyclopropyl-2,2,2-trifluoroethyl)-2,4-dimethylpyrrolo[1,2-a][1,3,5]triazine-8-carboxamide]",5 to 20,> 20,28.2
"CCCCCO[C@H]1CC[C@H](NC(=O)c2ccn3c(C)nc(C)nc23)CC1 [2,4-Dimethyl-N-((1S,4S)-4-(pentyloxy)cyclohexyl) pyrrolo[1,2-a][1,3,5]triazine-8-carboxamide]",5 to 20,> 20,12.5
"Cc1nc(C)c2cccc(C(=O)NC3CCCc4ccccc43)c2n1 (stereo not drawn) [2,4-Dimethyl-N-(1,2,3,4-tetrahydronaphthalen-1-yl)quinazoline-8-carboxamide]",< 5,5 to 20,5
"Cc1nc(C)n2ccc(C(=O)NC3(C)CCCc4ccccc43)c2n1 (stereo not drawn) [2,4-Dimethyl-N-(1-methyl-1,2,3,4-tetrahydronaphthalen-1-yl)pyrrolo[1,2-a][1,3,5]triazine-8-carboxamide]",5 to 20,> 20,5.1

# Now from value to compound:
activation at 0.1 µM [1] [%],activation at 1 µM [1] [%],solubility [2] [µg/mL],Structure (SMILES)
> 20,> 20,1.9,"Cc1nc(-c2cccc(C(N)=O)c2)nc2c(C(=O)NC(C3CC3)C(F)(F)F)ccn12 (stereo not drawn) [2-(3-Carbamoylphenyl)-N-(1-cyclopropyl-2,2,2-trifluoroethyl)-4-methylpyrrolo[1,2-a][1,3,5]triazine-8-carboxamide]"
> 20,> 20,0.6,"Cc1nc(-c2cccc(C#N)c2)nc2c(C(=O)NC(C3CC3)C(F)(F)F)ccn12 (stereo not drawn) [2-(3-Cyanophenyl)-N-(1-cyclopropyl-2,2,2-trifluoroethyl)-4-methylpyrrolo[1,2-a][1,3,5]triazine-8-carboxamide]"
> 20,> 20,0.1,"Cc1nc(-c2ccc(F)cc2)nc2c(C(=O)NC(C3CC3)C(F)(F)F)ccn12 (stereo not drawn) [N-(1-Cyclopropyl-2,2,2-trifluoroethyl)-2-(4-fluorophenyl)-4-methylpyrrolo[1,2-a][1,3,5]triazine-8-carboxamide]"
> 20,> 20,1,"COc1cc(-c2nc(C)n3ccc(C(=O)NC(C)C(F)(F)F)c3n2)ccc1F (stereo not drawn) [2-(4-Fluoro-3-methoxyphenyl)-4-methyl-N-(1,1,1-trifluoropropan-2-yl)pyrrolo[1,2-a][1,3,5]triazine-8-carboxamide]"
< 5,> 20,0.5,"Cc1nc(-c2ccc(F)cc2)nc2c(C(=O)NC(C)(C)C3CC3)ccn12 [N-(2-Cyclopropylpropan-2-yl)-2-(4-fluorophenyl)-4-methylpyrrolo[1,2-a][1,3,5]triazine-8-carboxamide]"
> 20,> 20,0.2,"Cc1nc(-c2cccc(F)c2)nc2c(C(=O)NC(C3CC3)C(F)(F)F)ccn12 (stereo not drawn) [N-(1-Cyclopropyl-2,2,2-trifluoroethyl)-2-(3-fluorophenyl)-4-methylpyrrolo[1,2-a][1,3,5]triazine-8-carboxamide]"
< 5,5 to 20,38.4,"Cc1nc(C)n2ccc(C(=O)NC(C)(C)C3CC3)c2n1 [N-(2-Cyclopropylpropan-2-yl)-2,4-dimethylpyrrolo[2-a][1,3,5]triazine-8-carboxamide]"
